Data on seven compounds can be found in patent US10875829B1, “Azetidine derivatives useful as modulators of cortical catecholaminergic neurotransmission” (Integrative Research Laboratories Sweden AB, priority 2016, dated 2020).

One assay deals with Arc mRNA. As to the kind of experiment: m-RNA analysis: tissue levels of Arc in brain regions. It is filed as in vivo, rats. The conditions noted are these: 33 μmol/kg s.c., 65 min before sacrifice, control saline, n=5. The protocol:
Sesack et al. (Anatom Substr Glut-Dopamine Inter. Annals of NY AcadSci, 2003, 1003; 36-52) discloses that the dopaminergic systems of the brain interact strongly with central glutamate neurotransmission. To investigate potential effects of compounds as disclosed herein on cortical and striatal NMDA type glutamate receptor related synaptic signaling, Arc mRNA induction was assessed upon acute administration. Arc (Arc/Arg3.1-activity regulated cytoskeleton-associated protein/activity-regulated gene 3.1; (Link W et al., Proc Natl Acad Sci, USA, 1995, 92; 5734-8 and Lyford G L et al., Neuron, 1995, 14; 433-45), is an immediate early gene (IEG), induced by synaptic activity, whose expression and localization at synaptic sites is triggered specifically by NMDA receptor activation and strongly related to neural plasticity (Steward and Worley, Neuron, 2001, 30; 227-40, Kawashima et al., PNAS, 2009, 106(1); 316-21 and Bramham et al., Exp Brain Res, 2010, 200; 125-40).
Animals were killed 60 min after the injection of the drugs by decapitation and the brains were dissected into […] different areas: Limbic system (containing nucleus accumbens, most parts of the olfactory tubercle, ventral pallidum), striatum, frontal cortex, hippocampus and the remaining cortex.
Total RNA was prepared by the guanidin isothiocyanate method (Chomczynski P and Sacchi N, Anal Biochem, 1987, 162(1); 156-9). RNA pellets were solved in RNAse-free water and stored at −80° C. The sample concentration was determined spectrophotometrically by a NanoDrop ND1000 (Saveen Werner). A quality indicator number and an integrity number of r-RNA were measured with an Experion (Bio-rad).
A two-step reversed transcription was performed by using a SuperScript III kit (Invitrogen). 1 μg of total RNA was reverse transcribed with 5 μl 2XRT Reaction Mix, 1 μl RT Enzyme Mix, in a total volume adjusted to 10 μl with DEPC-treated water. 1 U of E. coli RNase H was added. c-DNA was diluted 40 times and stored at −20° C.
Three sequences (one gene of interest and two reference genes) were amplified together in a triplex PCR-reaction. For real-time PCR measurements: 5 μl of c-DNA reaction was amplified in a 20 μl reaction mixture containing 10 μl PerfeCta Multiplex qPCR Supermix (Quanta, VWR), 3.5 μl RNAse-free water, 0.15 μM of each primer and 0.1 μM of each probe. Real-time PCR was measured on CFX96 (Bio-rad) using the following settings for all genes: 3 min pre-incubation at 95° C. followed by 40 cycles of denaturation at 95° C. for 15 s, annealing and elongation at 60° C. for 1 minute.
Reference genes are HPRT and cyclophilin.
Compounds and saline solution (control) as indicated above were administered s.c. 65 min before sacrificing the animals. Results are presented as percent of control means±SEM. Statistical significance was assessed using Student's t-test (2 tailed) vs controls. * denotes p<0.05, ** p<0.01, n=5, *** p<0.001, n=5.
Correct PCR products are confirmed by agarose gel electrophoresis (2%) PCR products are purified with PCR purification kit from Qiagen (Valencia, Calif., USA). All genes are sequenced at MWG, Germany. The amounts of gene of interests are normalized with the two reference genes HPRT and cyclophilin A with the equation delta-delta CT.

Assay [1] deals with human alpha 2A adrenergic receptor and/or the non-selective adrenergic alpha 2 receptor. Briefly: In vitro binding studies, adrenergic alpha 2 receptors ([3H]RX 821002). Also noted: species or system human and/or rat. The conditions noted are these: concentration of 10 μM. The protocol: (The measurement was performed as described in Langin, D., Lafontan, M., Stilling, M. R. and Paris, H. (1989), [3H]RX821002: a new tool for the identification of alpha2A-adrenoceptors, Eur. J. Pharmacol. 167: 95.)
Cell membrane homogenates (48 μg protein) were incubated for 60 min at 22° C. with 1 nM [3H]RX 821002 in the absence or presence of the test compound in a buffer containing 50 mM Tris-HCl (pH 7.4), 2 mM MgCl2 and 1 mM EDTA. Nonspecific binding was determined in the presence of 100 μM (−)epinephrine. Following incubation, the samples were filtered rapidly under vacuum through glass fiber filters (GF/B, Packard) presoaked with 0.3% PEI and rinsed several times with ice-cold 50 mM Tris-HCl using a 96-sample cell harvester (Unifilter, Packard). The filters were dried then counted for radioactivity in a scintillation counter (Topcount, Packard) using a scintillation cocktail (Microscint 0, Packard).
The results are expressed as a percent inhibition of the control radioligand specific binding.
(antagonist radioligand). Membrane homogenates (rat) of cerebral cortex (160 μg protein) were incubated for 60 min at 22° C. with 0.5 nM [3H]RX 821002 in the absence or presence of the test compound in a buffer containing 50 mM Tris-HCl (pH 7.4), 2 mM MgCl2 and 1 mM EDTA. Nonspecific binding was determined in the presence of 100 μM (−)epinephrine. Following incubation, the samples were filtered rapidly under vacuum through glass fiber filters (GF/B, Packard) presoaked with 0.3% PEI and rinsed several times with ice-cold 50 mM Tris-HCl using a 96-sample cell harvester (Unifilter, Packard). The filters were dried then counted for radioactivity in a scintillation counter (Topcount, Packard) using a scintillation cocktail (Microscint 0, Packard). The results are expressed as a percent inhibition of the control radioligand specific binding. The standard reference compound was yohimbine, which was tested in each experiment at several concentrations to obtain a competition curve from which its IC50 was calculated.

The next assay deals with SERT, NET and/or DAT. As to the kind of experiment: Radioligand binding assays at the monoamine transporters, general statements. Also on record: species or system human. Particulars: concentration of each tested compound 10 μM. The text has this:
A serotonin-norepinephrine-dopamine reuptake inhibitor (SNDRI), also known as a triple reuptake inhibitor (TRI), is a type of drug that acts as a combined reuptake inhibitor of the monoamine neurotransmitters serotonin, norepinephrine, and dopamine. It does this by concomitantly inhibiting the serotonin transporter (SERT), norepinephrine transporter (NET), and dopamine transporter (DAT), respectively. Inhibition of the reuptake of these neurotransmitters increases their extracellular concentrations and, therefore, results in an increase in serotonergic, adrenergic, and dopaminergic neurotransmission across the brain. However, the use of triple re-uptake inhibitors (especially the inhibition of DAT) in humans are of potential concern due to abuse liability. Cocaine is the most well-known triple-uptake inhibitor and is widely encountered as a drug of abuse. […] One assay to measure affinity of said compounds as described herein may be the percent inhibition from radioligand binding assay using cells expressing human transporters and receptors (Table 5), wherein the concentration of each tested compound in such assay is 10 μM. Alternatively other assays known to the skilled person may be used to measure the affinity of said compounds, wherein the concentration of each tested compound in such assay is 10 μM.
Each compound was tested in a single concentration at 1.0 E-5 M and in duplicate. […]

Each structure is given as a SMILES string. Structures can show the parent of a compound that is named as a salt. Marks after values point to notes of the source that are not given here.

`Fc1cccc(OC2CNC2)c1F` [Example 1A, 3-(2,3-difluorophenoxy)azetidine hydrochloric acid salt]: in the assay with Arc mRNA, the “Arc frontal cortex ± SEM” value is recorded as 236 ± 9*** % of control means and the “Arc striatum ± SEM” value is on record as 149 ± 11* % of control means. For the same compound, the “inhibition of the binding of a radioactively labeled ligand” value in assay [1] is “more than 93%”.

With `Fc1cc(F)c(F)c(OC2CNC2)c1` [Example 2, 3-(2,3,5-trifluorophenoxy)azetidine hydrochloric acid salt], in the assay on Arc mRNA, the “Arc frontal cortex ± SEM” value is 96 ± 20 % of control means and the “Arc striatum ± SEM” value is reported as 104 ± 12 % of control means.

Take `Fc1cc(F)c(F)c(OC2CNC2)c1F` [Example 3, 3-(2,3,5,6-tetrafluorophenoxy)-azetidine hydrochloric acid salt]: in the assay on Arc mRNA, the “Arc frontal cortex ± SEM” value is 149 ± 11** % of control means and the “Arc striatum ± SEM” value is 141 ± 9.0** % of control means. In assay [1], the “inhibition of the binding of a radioactively labeled ligand” value was “more than 93%”.

Take `Fc1ccc(F)c(OC2CNC2)c1F` [Example 20, 3-(2,3,6-trifluorophenoxy)azetidine hydrochloric acid salt]: the “inhibition of the binding of a radioactively labeled ligand” value in assay [1] was “more than 93%”.

As for `Fc1cc(F)cc(OC2CNC2)c1.O=C(O)C(O)C(O)C(=O)O` [Example 52B, 3-(3,5-difluorophenoxy)azetidine (+)-tartaric acid salt], in the assay on Arc mRNA, the “Arc frontal cortex ± SEM” value is 148 ± 6.9** % of control means and the “Arc striatum ± SEM” value is on record as 106 ± 7.1 % of control means.

For the compound `Fc1cc(F)cc(OC2CNC2)c1` [Example 52C, 3-(3,5-difluorophenoxy)azetidine hydrochloric acid salt], in assay [1], the “inhibition of the binding of a radioactively labeled ligand” value was “more than 93%”.

On to `Clc1ccc(OC2CNC2)cc1Cl` [Reference Compound, 3-(3,4-dichlorophenoxy)azetidine hydrochloric acid salt, reference compound], for which the “affinity to SERT, NET and/or DAT (percent inhibition)” value with SERT, NET and/or DAT is on record as “higher than 75%”.
